“Also recorded” adds a separate entry of the source. Each block holds one molecule with its values, some of them ahead of it.
Key:
[1] = tested on: seizures induced by a 6 Hz alternating current in mice; test: 6 Hz seizure model; type: in vivo; conditions: for Protected/Tested: 6 Hz 32 milliamp; for Protected/Tested / Deaths: 0.50 hr; for Deaths: 6 Hz
[2] = tested on: blue light induced photoreceptor injury; test: blue light induced photoreceptor injury (ERG and histology); type: in vivo, Sprague Dawley rat
Method: Exposure to blue light results in a loss of photoreceptor cells in the outer retina (arrows).
Hemotoxylin and Eosin stained retinal sections are imaged and outer nuclear layer (ONL) thickness and cell count is evaluated in 8 consecutive regions on either side of the optic nerve head (ONH) (A). In Sprague Dawley rat the typical ONL thickness and photoreceptor cell counts adjacent to the ONH are approximately 40 microns and 10 cells, respectively (B). The cell counts and thicknesses from a retinal section taken from the vertical meridian reveal that in naïve retinae they are stable from just adjacent to ONH in to the ora serata (C,D).
Rat eyes were cut parallel to the vertical meridian through the optic nerve head and several sections were collected. […] Within each […] region, 3 measurements, […] apart, were conducted, averaged and reported as ONL thickness (um). The number of rod and cone nuclei spanning the outer nuclear layer at each measurement site were counted manually and tabulated as photoreceptor #. For each animal, two to three sections were analyzed and averaged to give a final quantifiable value.

[3] = tested on: Experimental Autoimmune Encephalomyelitis (EAE); test: Experimental Autoimmune Encephalomyelitis (EAE), clinical score and flash VEP; type: in vivo, rats
Excerpt: Encephalomyelitis (EAE). (A) Representative flash Visual Evoked Potential (VEP) traces from baseline and following the induction of EAE. Three distinct peaks, N1, P2, N2 are labeled in the traces, with P2 being the most reproducible. Note that following the induction of EAE the latency to the P2 peak is increased. This is associated with a poor visual outcome in Optic Neuritis in humans. […] The maximum clinical score is the score associated with the most severe paralysis each animal experienced during the daily observation period.

Nav1.3 = target: T1, Nav1.3 (Homo sapiens, UniProt Q9NY46); test: gigohm-seal manual patch-clamp (MPC) on HEK cells stably transfected with sodium channels; type: cell-based
T1 construct: expressed in transfected cells; host or cells: HEK cells, stably transfected
Method: Therefore, the efficacy and selectivity of the identified persistent current antagonists were verified using conventional gigohm-seal manual patch-clamp (MPC).
MPC experiments were conducted on human embroynic kidney (HEK) cells stably transfected with sodium channels were plated on coverslips. Cells were patch clamped using standard patch-clamp techniques (Hamill, O. P., A. Marty, et al., 1981 Pflugers Arch. 391:85-100). Once sufficient persistent current was established, buffer was introduced into the chamber at a constant flow rate of […] until the persistent current stabilized. Subsequent concentration-response experiments were conducted using this same flow rate. After application of the compound, current amplitude was monitored until equilibrium was established. The data recorded at equilibrium was normalized to the control current measured during perfusion with control buffer in the absence of a test compound. Adequate solution perfusion and gigohm seal stability were monitored throughout the experiment. The compound's antagonism of persistent or transient sodium currents is expressed as the IC5O of block for the respective current (see Table 1). Selectivity for block of the persistent current was calculated as the ratio of the IC5O for the transient current divided by the IC5O for the persistent current.

[4] = tested on: rat cultured hippocampal pyramidal neurons; test: spontaneous firing of cultured hippocampal neurons, whole cell current clamp; type: cell-based; conditions: 1 μM, FIG. 2
Method: Activity of the compounds on the rate of spontaneous firing of neurons was assessed in hippocampal neurons. Hippocampal cells from P-2 rats were cultured for 10-14 days prior to use. Cells were plated on laminin-coated cover slips that could be transferred to a perfusion chamber for conventional whole cell electrophysiological studies. Conventional whole cell current clamp methods were used to record steady state and spontaneous action potentials. Cells were held at their resting potential (Iclamp=0 pA) and spontaneous action potentials were recorded and followed over time. Healthy cells had low rates of spontaneous firing. Spontaneous firing rate increased with metabolic insults to cells, e.g. Mg^2+-depletion or with aging. Spontaneous firing appeared to occur more often in older cell cultures (10-14 days).
The “current clamp” mode was employed tomeasure frequency of spontaneous discharge and action potential bursting in the absence and presence of compound #3 (1 μM). […] The results of these experiments contribute to the efficacy profile of the compounds of the present invention.

[5] = tested on: mechanical allodynia produced by spinal nerve ligation; test: spinal nerve ligation (Chung Model), mechanical allodynia, von Frey hairs; type: in vivo, rats
Method: To assess the actions of the presently claimed benzimdazole compounds in neuropathic pain their efficacy in reversing the mechanical allodynia produced by spinal nerve ligation (Chung Model) and reducing the thermal hyperalgesia produced by subcutaneous injection of capsaicin was determined.
In the Chung spinal nerve ligation model, rats are anesthetized before surgery. The surgical site is shaved and prepared either with betadine or Novacaine. Incision is made from the thoracic vertebra XIII down toward the sacrum. Muscle tissue is separated from the spinal vertebra (left side) at the L4-S2 levels. The L6 vertebra is located and the transverse process is carefully removed with a small rongeur to expose the L4-L6 spinal nerves. The L5 and L6 spinal nerves are isolated and tightly ligated with 6-0 silk thread. The same procedure is done on the right side as a control, except no ligation of the spinal nerves is performed. […]
Compounds to be tested were prepared as suspension in vehicle containing 2% sodium carboxymethylcellulose (CMC) and 1% Pluronic FI 27 by vigorous homogenization. […] Tactile allodynia was measured prior to and at increments of 15, 30, 60 and 90 minutes after drug administration using von Frey hairs that are a series of fine hairs with incremental differences in stiffness. […] The applied force has been calculated to range from 0.41 to 15.1 grams. […]

[6] = tested on: capsaicin-induced thermal hyperalgesia; test: capsaicin-induced thermal hyperalgesia, plantar test; type: in vivo, rat; conditions: doses 10 mg/kg and above, i.p., FIG. 10
Excerpt: A second method for evaluating of 1,2 substituted benzimidazoles on neuropathic pain was to determine their effects on capsaicin-induced thermal hyperalgesia in the rat.
Peripherally administered capsaicin (the active agent in chili peppers) induces an acute, local, inflammatory response through actions on nociceptive sensory nerve endings (‘pain fibers”). In rats, intraplantar injection of capsaicin produces decease in withdrawal latency to radiant heat (thermal hyperalgesia). This primary hyperalgesia, observed at the site of injury, is characterized by sensitization to thermal and mechanical stimulation. Primary hyperalgesia, especially that elicited by noxious thermal stimulus, is mediated, in part, by sensitization of C-fiber mechanoheat (polymodal) receptors (Kennis, 1982; Konietzny and Hensel, 1983; Simone, et al, 1987). […]
Intraplantar injection of capsaicin ([…]) was used to induce thermal hyperalgesia, as described previously(Gilchrist et al., 1996). […] For this test, hind paw withdrawal latencies (PWLs) to a noxious thermal stimulus were determined using the technique described by Hargreaves et al. (1988) using a plantar test apparatus (PAW
Thermal Analgesia Meter instrument Department of Anesthesiology, UCSD, San Diego, Calif.). Time to remove paw from heat source is measured and expressed as the paw withdrawal latency. […]
assessed 30 minutes after capsaicin challenge. […]

T1 sequence (Q9NY46 whole entry): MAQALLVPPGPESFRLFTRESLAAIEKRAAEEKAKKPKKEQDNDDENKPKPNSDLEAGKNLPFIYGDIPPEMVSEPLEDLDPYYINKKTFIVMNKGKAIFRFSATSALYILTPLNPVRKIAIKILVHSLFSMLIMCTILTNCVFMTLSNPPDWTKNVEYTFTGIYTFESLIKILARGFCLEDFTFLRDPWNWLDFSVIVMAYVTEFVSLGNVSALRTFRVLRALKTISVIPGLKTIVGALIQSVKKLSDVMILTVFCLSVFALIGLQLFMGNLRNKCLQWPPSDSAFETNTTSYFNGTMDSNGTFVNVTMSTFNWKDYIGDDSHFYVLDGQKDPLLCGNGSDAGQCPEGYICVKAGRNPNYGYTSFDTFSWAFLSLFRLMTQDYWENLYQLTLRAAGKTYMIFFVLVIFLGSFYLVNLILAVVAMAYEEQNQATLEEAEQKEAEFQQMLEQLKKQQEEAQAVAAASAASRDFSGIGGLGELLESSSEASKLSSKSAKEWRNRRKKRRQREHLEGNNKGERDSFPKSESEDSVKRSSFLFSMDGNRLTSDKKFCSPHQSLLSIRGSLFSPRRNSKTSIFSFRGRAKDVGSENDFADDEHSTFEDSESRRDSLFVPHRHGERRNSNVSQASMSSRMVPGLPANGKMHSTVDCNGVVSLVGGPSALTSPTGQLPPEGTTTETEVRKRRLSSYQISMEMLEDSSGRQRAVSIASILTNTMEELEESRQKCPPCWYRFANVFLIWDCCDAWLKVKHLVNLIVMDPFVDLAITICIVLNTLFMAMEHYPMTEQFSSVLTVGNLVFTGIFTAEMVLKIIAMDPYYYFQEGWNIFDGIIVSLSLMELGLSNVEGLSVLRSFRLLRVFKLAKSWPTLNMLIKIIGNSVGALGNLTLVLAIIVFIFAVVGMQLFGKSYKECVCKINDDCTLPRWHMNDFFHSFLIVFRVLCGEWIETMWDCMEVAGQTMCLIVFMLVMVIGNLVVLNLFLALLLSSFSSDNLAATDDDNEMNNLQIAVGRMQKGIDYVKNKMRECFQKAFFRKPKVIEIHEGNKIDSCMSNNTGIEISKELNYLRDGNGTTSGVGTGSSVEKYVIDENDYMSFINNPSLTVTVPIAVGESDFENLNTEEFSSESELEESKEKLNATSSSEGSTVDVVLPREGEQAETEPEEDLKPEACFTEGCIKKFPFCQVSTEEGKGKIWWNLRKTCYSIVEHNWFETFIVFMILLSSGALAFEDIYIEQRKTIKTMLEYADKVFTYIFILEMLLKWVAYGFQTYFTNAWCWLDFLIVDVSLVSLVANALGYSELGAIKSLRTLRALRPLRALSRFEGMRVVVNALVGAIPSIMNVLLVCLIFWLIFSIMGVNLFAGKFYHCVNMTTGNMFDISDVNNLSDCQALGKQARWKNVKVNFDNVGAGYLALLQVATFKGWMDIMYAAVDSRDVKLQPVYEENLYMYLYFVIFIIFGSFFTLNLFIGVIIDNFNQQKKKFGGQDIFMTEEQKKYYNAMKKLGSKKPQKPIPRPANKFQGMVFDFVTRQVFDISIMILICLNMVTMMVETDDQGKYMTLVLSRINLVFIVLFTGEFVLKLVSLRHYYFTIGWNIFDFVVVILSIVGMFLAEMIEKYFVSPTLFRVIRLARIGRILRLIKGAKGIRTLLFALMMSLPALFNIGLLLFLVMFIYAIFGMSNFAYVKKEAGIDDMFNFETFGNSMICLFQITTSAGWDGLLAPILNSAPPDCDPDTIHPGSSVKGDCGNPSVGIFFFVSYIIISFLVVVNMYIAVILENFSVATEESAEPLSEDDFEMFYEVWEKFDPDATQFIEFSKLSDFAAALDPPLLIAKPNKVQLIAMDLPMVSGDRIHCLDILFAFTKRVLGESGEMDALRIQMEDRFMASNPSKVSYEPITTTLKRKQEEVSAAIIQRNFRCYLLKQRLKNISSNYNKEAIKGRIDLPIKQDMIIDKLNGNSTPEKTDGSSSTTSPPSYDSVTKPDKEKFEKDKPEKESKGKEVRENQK

SMILES: COc1cccc(OCc2nc3ccc(OCCC(C)C)cc3n2CC(C)C)c1 [Compound #2, 1-Isobutyl-2-(3-methoxy-phenoxymethyl)-6-(3-methyl-butoxy)-1H-benzimidazole]
Protected/Tested ([1]; dose 12.5 mg/kg): 1/8
Protected/Tested ([1]; dose 25.0 mg/kg): 3/8
Protected/Tested ([1]; dose 50.0 mg/kg): 3/8
Protected/Tested ([1]; dose 100.0 mg/kg): 5/8
Protected/Tested ([1]; dose 200.0 mg/kg): 8/8
Deaths ([1]; dose 12.5 mg/kg): 0
Deaths ([1]; dose 25.0 mg/kg): 0
Deaths ([1]; dose 50.0 mg/kg): 0
Deaths ([1]; dose 100.0 mg/kg): 0
Deaths ([1]; dose 200.0 mg/kg): 0
EC50 in the 6 Hz seizure model ([1]; mice): 50.7 mg/kg
predicted TD50 ([1]; mice): > 500 mg/kg
retinal function and structure as determined by ERG and histology ([2]; 30 mg/kg i.p., 6 hour blue light exposure, FIG. 8): preserves retinal function and structure
VEP latency (P2 peak) ([3]; 50 mg/kg, FIG. 11 B, C): preserves VEP latency
maximum clinical score versus vehicle ([3]; FIG. 11): significantly (P<0.01) average lower clinical score
initial clinical sign of paralysis ([3]; dose of 30 mg/kg, FIG. 11): significantly reduces

concentration blocking 50% of the persistent current (Nav1.3; FIG. 1): low to submicromolar
IC50 (Nav1.3; FIG. 1, read-out: effective dose for blocking the transient current): > 30 µM
SMILES: C=C(C)Cn1c(COc2cccc(OC)c2)nc2ccccc21 [Compound #3, 1-[1-(2-methylprop-2-enyl)benzimidazol-2-ylmethoxy]-3-methoxybenzene]
bursting activity (spontaneous bursts of action potentials) [4]: bursting activity was reduced
spontaneous discharge of action potentials [4]: potently decreased
retinal function as determined by ERG (b-wave and a-wave amplitude) ([2]; 100 mg/kg i.p., after blue light exposure, FIG. 6): significantly preserves retinal function
structural integrity of the retina by histology (ONL thickness, photoreceptor count) ([2]; 100 mg/kg i.p., after blue light exposure, FIG. 7): preserved the structural integrity of the retina; also recorded: protects photoreceptors from blue-light induced toxicity
allodynia with respect to vehicle injected controls ([5]; doses of 300 mg/kg, i.p., FIG. 9): significantly reduced
reversal of mechanical allodynia ([5]; doses of 30 and 300 mg/kg, FIG. 9 legend): significantly reduced
capsaicin-induced thermal hyperalgesia [6]: significantly reduces

Source: patent US9540332B2, “Benzimidazole derivatives as selective blockers of persistent sodium current” (Allergan, Inc., priority 2011, dated 2017)
